The values below come from patent US20260356841A1, “HETEROCYCLIC PYRIDINONE COMPOUNDS AS TRIGGERING RECEPTOR EXPRESSED ON MYELOID CELLS 2 AGONISTS AND METHODS OF USE” (Vigil Neuroscience, Inc., priority 2023, published 2026).

The target in this experiment is T1, human TREM2 (Homo sapiens, UniProt Q9NZC2).
T1 construct: expressed in transfected cells; host or cells: HEK293T (HEK293T-hTREM2 cells)
T1 sequence (Q9NZC2 19-230): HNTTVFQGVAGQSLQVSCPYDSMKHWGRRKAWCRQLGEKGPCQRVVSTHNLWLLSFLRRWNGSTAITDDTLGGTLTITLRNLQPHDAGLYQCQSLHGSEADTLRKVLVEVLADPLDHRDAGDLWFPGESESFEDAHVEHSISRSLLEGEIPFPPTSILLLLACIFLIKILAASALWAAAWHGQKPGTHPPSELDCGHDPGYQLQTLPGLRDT
T1 sequence (O43914 22-113 partner): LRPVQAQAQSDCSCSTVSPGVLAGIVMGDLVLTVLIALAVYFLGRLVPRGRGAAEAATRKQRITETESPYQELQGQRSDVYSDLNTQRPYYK
As to the kind of experiment: TREM2 agonist potency by cellular phosphorylation of Spleen Tyrosine Kinase (Syk), AlphaLisa, HEK293T-hTREM2 cells. The format is cell-based. The settings on record: hTREM2 EC50 Data (HEK293 Cells); Syk phosphorylation, AlphaLisa; read-out: hTREM2 EC50. In outline: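 HEK293T cells co-expressing human TREM2 and DAP12, plated 20–24 h before use. Compounds applied 45 min at room temperature in assay buffer, then cells lysed and phospho-Syk quantified by AlphaLisa. Percent activation from a standard curve; EC50 from a four-parameter variable-slope fit.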
In general terms: Bead proximity is the source of the signal in Alpha formats.
A word on the EC50: it is the concentration needed to bring the measured effect to its halfway point. In the case of `Cc1nc2nc([C@@H]3CCO[C@H](c4ccc(=O)n(C)c4)C3)nc(C34CC(C(F)(F)F)(C3)C4)c2nc1C` [Example 26, 5-[(2S,4R)-4-[6,7-dimethyl-4-[3-(trifluoromethyl)-1-bicyclo[1.1.1]-pentanyl]pteridin-2-yl]tetrahydropyran-2-yl]-1-methyl-pyridin-2-one], the EC50 was less than 100 nM. In the case of `Cc1nc2nc([C@H]3CCO[C@@H](c4ccc(=O)n(C)c4)C3)nc(C34CC(Cl)(C3)C4)c2nc1C` (single isomer, unassigned) [Example 40], the EC50 was less than 100 nM.

Regarding `Cc1nc2nc([C@H]3CCO[C@@H](c4ccc(=O)n(C5CC5)c4)C3)nc(-c3ccc(C(F)(F)F)cc3F)c2nc1C` [Example 64, 1-cyclopropyl-5-[(2R,4S)-4-[4-[2-fluoro-4-(trifluoromethyl)phenyl]-6,7-dimethyl-pteridin-2-yl]tetrahydropyran-2-yl]pyridin-2-one], the EC50 was less than 100 nM.

As to `[2H]C([2H])([2H])n1cc([C@H]2CN(c3nc(C45CC(C(F)(F)F)(C4)C5)c4nc(C)c(C)nc4n3)C[C@@H](C)O2)ccc1=O` [Example 354], the EC50 was less than 100 nM.

For `Cc1nc2nc(N3C[C@@H](C)O[C@@H](c4ccc(=O)n(C5CC5)c4)C3)nc(C34CC(C(F)(F)F)(C3)C4)c2nc1C1COC1` [Example 183, 1-cyclopropyl-5-((2S,6R)-6-methyl-4-(7-methyl-6-(oxetan-3-yl)-4-(3-(trifluoromethyl)bicyclo[1.1.1]pentan-1-yl)pteridin-2-yl)morpholin-2-yl)pyridin-2(1H)-one], the EC50 was less than 100 nM.

Regarding `CC(C)=Nn1cc([C@H]2C[C@@H](c3nc(C45CC(C(F)(F)F)(C4)C5)c4cc(C(F)(F)F)c(C)nc4n3)CCO2)ccc1=O` [Example 208, 5-((2R,4S)-4-(7-methyl-6-(trifluoromethyl)-4-(3-(trifluoromethyl)bicyclo[1.1.1]pentan-1-yl)pyrido[2,3-d]pyrimidin-2-yl)tetrahydro-2H-pyran-2-yl)-1-(propan-2-ylideneamino)pyridin-2 (1H)-one], the EC50 was less than 100 nM. For the compound `Cc1nc2nc([C@@H]3CCO[C@@H](c4ccc(=O)n(C)c4)C3)nc(-c3cc(F)c(C(F)(F)F)cc3F)c2nc1C` [Example 348], the EC50 is more than 500 nM. With `Cc1nc2nc([C@H]3C[C@@H](C)O[C@@H](c4ccc(=O)n(C)c4)C3)nc(C34CC(C(F)(F)F)(C3)C4)c2nc1C` [Example 56, 5-[(2R,4S,6R)-4-[6,7-dimethyl-4-[3-(trifluoromethyl)-1-bicyclo[1.1.1]-pentanyl]pteridin-2-yl]-6-methyl-tetrahydropyran-2-yl]-1-methyl-pyridin-2-one], the EC50 was less than 100 nM. As to `CCCNn1cc([C@H]2C[C@@H](c3nc(C45CC(C(F)(F)F)(C4)C5)c4nc(C)c(C)nc4n3)CCO2)ccc1=O` [Example 212, 5-[(2R,4S)-4-[6,7-dimethyl-4-[3-(trifluoromethyl)-1-bicyclo[1.1.1]pentanyl]pteridin-2-yl]tetrahydropyran-2-yl]-1-(propylamino)pyridin-2-one], the EC50 was less than 100 nM. Regarding `COc1nc2c(-c3ccc(C(F)(F)F)cc3F)nc([C@@H]3CCO[C@H](c4ccc(=O)n(C)c4)C3)nc2nc1C` [Example 130, 1-methyl-5-[(2S,4R)-4-[4-[2-fluoro-4-(trifluoromethyl)phenyl]-6-methoxy-7-methyl-pteridin-2-yl]tetrahydropyran-2-yl]pyridin-2-one], the EC50 was less than 100 nM. Consider `COc1nc2c(C34CC(C(F)(F)F)(C3)C4)nc([C@H]3CCO[C@@H](c4ccc(=O)n(C5CC5)c4)C3)nc2nc1C` [Example 142, 1-cyclopropyl-5-[(2R,4S)-4-[6-methoxy-7-methyl-4-[3-(trifluoromethyl)-1-bicyclo-[1.1.1]pentanyl]pteridin-2-yl]tetrahydropyran-2-yl]pyridin-2-one], for which the EC50 was less than 100 nM. In the case of `Cc1nc2nc([C@@H]3CCO[C@H](c4ccc(=O)n(C)c4)C3)nc(C34CC(C(F)(F)F)(C3)C4)c2nc1C1CC1` [Example 159, 1-methyl-5-[(2S,4R)-4-[6-cyclopropyl-7-methyl-4-[3-(trifluoro-methyl)-1-bicyclo[1.1.1]pentanyl]pteridin-2-yl]tetrahydropyran-2-yl]pyridin-2-one], the EC50 was less than 100 nM. As for `Cc1nc2nc([C@H]3CCO[C@@H](c4ccc(=O)[nH]c4)C3)nc(C34CC(C(F)(F)F)(C3)C4)c2cc1C(F)(F)F` [Example 330, 5-((2R,4S)-4-(7-methyl-6-(trifluoromethyl)-4-(3-(trifluoromethyl)bicyclo[1.1.1]pentan-1-yl)pyrido[2,3-d]pyrimidin-2-yl)tetrahydro-2H-pyran-2-yl)pyridin-2(1H)-one], the EC50 is less than 100 nM. As to `COc1nc2c(C3CCC(F)(F)CC3)nc([C@H]3CCO[C@@H](c4ccc(=O)n(C)c4)C3)nc2nc1C` [Example 138, 5-[(2R,4S)-4-[4-(4,4-difluorocyclohexyl)-6-methoxy-7-methyl-pteridin-2-yl]tetrahydropyran-2-yl]-1-methyl-pyridin-2-one], the EC50 was less than 100 nM.

For `Cc1nc2nc([C@H]3CCO[C@@H](c4ccc(=O)n(C(C)C)c4)C3)nc(-c3ccc(C(F)(F)F)cc3F)c2nc1C` [Example 68, 1-isopropyl-5-[(2R,4S)-4-[4-[2-fluoro-4-(trifluoromethyl)-phenyl]-6,7-dimethyl-pteridin-2-yl]tetrahydropyran-2-yl]pyridin-2-one], the EC50 was less than 100 nM.

Turning to `Cc1nc2nc([C@@H]3CCO[C@H](c4ccc(=O)n(C)c4)C3)nc(C3CCC(F)(F)CC3)c2nc1C` [Example 29, 5-((2S,4R)-4-(4-(4,4-difluorocyclohexyl)-6,7-dimethylpteridin-2-yl)tetrahydro-2H-pyran-2-yl)-1-methylpyridin-2 (1H)-one], the EC50 is 100 to 500 nM. Take `Cc1nc2nc([C@H]3CCO[C@@H](c4ccc(=O)n(C)c4)C3)nc(C34CC(C(C)(F)F)(C3)C4)c2nc1C` [Example 38, 5-[(2R,4S)-4-[4-[3-(1,1-difluoroethyl)-1-bicyclo[1.1.1]pentanyl]-6,7-dimethyl-pteridin-2-yl]tetrahydropyran-2-yl]-1-methyl-pyridin-2-one]: the EC50 was less than 100 nM. `Cc1nc2nc([C@H]3CCO[C@@H](c4ccc(=O)n(C)c4)C3)cc(C34CC(C(F)(F)F)(C3)C4)c2nc1C` [Example 167, 1-methyl-5-[(2R,4S)-4-[2,3-dimethyl-8-[3-(trifluoromethyl)-1-bicyclo[1.1.1]pentanyl]pyrido[2,3-b]pyrazin-6-yl]tetrahydropyran-2-yl]pyridin-2-one]: the EC50 is less than 100 nM. Under `Cc1nc2nc(N3C[C@@H](C)O[C@@H](c4ccc(=O)n(C)c4)C3)nc(C34CC(C(N)=O)(C3)C4)c2nc1C` [Example 204, 3-[6,7-dimethyl-2-[(2R,6S)-2-methyl-6-(1-methyl-6-oxo-3-pyridyl)morpholin-4-yl]pteridin-4-yl]bicyclo[1.1.1]pentane-1-carboxamide] stands more than 500 nM. `Cc1nc2nc([C@H]3CCO[C@@H](c4ccc(=O)n(C)c4)C3)nc(C34CCC(C(C)(F)F)(CC3)C4)c2nc1C` [Example 60, 5-((2R,4S)-4-(4-(4-(1,1-difluoroethyl)bicyclo[2.2.1]heptan-1-yl)-6,7-dimethylpteridin-2-yl)tetrahydro-2H-pyran-2-yl)-1-methylpyridin-2(1H)-one]: the EC50 is less than 100 nM. In the case of `Cc1nc2nc([C@H]3CCO[C@@H](c4ccc(=O)n(N(C)C)c4)C3)nc(C34CC(C(F)(F)F)(C3)C4)c2nc1C` [Example 178, 1-(dimethylamino)-5-[(2R,4S)-4-[6,7-dimethyl-4-[3-(trifluoromethyl)-1-bicyclo[1.1.1]pentanyl]pteridin-2-yl]tetrahydropyran-2-yl]pyridin-2-one], the EC50 is less than 100 nM. The figure for `Cc1nc2nc([C@@H]3CCO[C@H](c4ccc(=O)n(C5CC5)c4)C3)nc(-c3ccc(C(F)(F)F)cc3F)c2nc1C` [Example 65, 1-cyclopropyl-5-[(2S,4R)-4-[4-[2-fluoro-4-(trifluoromethyl)phenyl]-6,7-dimethyl-pteridin-2-yl]tetrahydropyran-2-yl]pyridin-2-one] is less than 100 nM; for `CNn1cc([C@H]2C[C@@H](c3nc(C45CC(C(F)(F)F)(C4)C5)c4nc(C)c(C)nc4n3)CCO2)ccc1=O` [Example 179, 5-[(2R,4S)-4-[6,7-dimethyl-4-[3-(trifluoromethyl)-1-bicyclo[1.1.1]pentanyl]pteridin-2-yl]tetrahydropyran-2-yl]-1-(methylamino)pyridin-2-one] it is less than 100 nM; for `Cc1cnc2nc([C@H]3CCO[C@@H](c4ccc(=O)[nH]c4)C3)nc(C34CC(C(F)(F)F)(C3)C4)c2n1` [Example 197, 5-((2R,4S)-4-(6-methyl-4-(3-(trifluoromethyl)bicyclo[1.1.1]pentan-1-yl)pteridin-2-yl)tetrahydro-2H-pyran-2-yl)pyridin-2(1H)-one] it is 100 to 500 nM. Take `C[C@@H]1CN(c2nc(-c3ccc(F)cc3F)c3sc(N(C)C)nc3n2)C[C@H](c2ccc(=O)n(C)c2)O1` [Example 176, 5-[(2S,6R)-4-[7-(2,4-difluorophenyl)-2-(dimethylamino)thiazolo[4,5-d]pyrimidin-5-yl]-6-methyl-morpholin-2-yl]-1-methyl-pyridin-2-one]: the EC50 is less than 100 nM. Under `Cc1nc2cc(N3C[C@@H](C)O[C@@H](c4ccc(=O)[nH]c4)C3)nc(-c3ccc(F)cc3F)c2nc1C` [Example 186, 5-((2S,6R)-4-(5-(2,4-difluorophenyl)-2,3-dimethylpyrido[3,4-b]pyrazin-7-yl)-6-methylmorpholin-2-yl)pyridin-2(1H)-one] stands 100 to 500 nM; under `[2H]C([2H])([2H])n1cc([C@H]2C[C@@H](c3nc(C4CC45CC5(F)F)c4nc(C)c(C)nc4n3)CCO2)ccc1=O` (stereo partly drawn) [Example 92, 5-((2R,4S)-4-(4-(4,4-difluorospiro[2.2]pentan-1-yl)-6,7-dimethylpteridin-2-yl)tetrahydro-2H-pyran-2-yl)-1-(methyl-d3)pyridin-2(1H)-one], more than 500 nM.
